Measurements published in publication PMC5131364, “Pharmacologic modulation of RORγt translates to efficacy in preclinical and translational models of psoriasis and inflammatory arthritis” (Scientific Reports, 2016).

Experiments:
RORα = target: T1, RORα (Homo sapiens, UniProt P35398); test: 1-hybrid reporter assay in HEK293T cells (GAL4-RORα); assay type: cell-based; details: HEK-293T
T1 construct: NP_599022, aa 305–556; expressed in transfected cells; host or cells: HEK293T
Procedure: The reporter assay was performed by transient co-transfection of HEK293T cells with pCMV-BD (Stratagene #211342) containing the GAL4 DNA-binding domain fused with full-length human RORγt (Genbank accession no. NP_001001523, aa 1–497), pFR-Luc reporter and pRL-CMV reporter (Promega #E2261) plus Carrier DNA (Clontech # 630440) using PEI solution (Sigma Aldrich cat# 40872-7) in a 96-well plate. […] Medium was removed and cells were lysed with Passive Lysis Buffer (Promega). Firefly luciferase buffer was then added and firefly luciferase luminescence was read on BMG LUMIstar OPTIMA luminescence plate reader. One second later, renilla luciferase buffer was then added and renilla luciferase luminescence was read to measure cell viability. For RORα and RORβ activity, similar assays were performed except cells were transfected with pCMV-BD-RORα (Genbank accession no. NP_599022, aa 305–556) or pCMV-BD-RORβ (Genbank accession no. NP_008845, aa 201–459).

[1] = tested on: CD4+ T cells under Th1 conditions; test: Mouse CD4+ T cell in vitro Th1 differentiation; assay type: cell-based; details: titrated compound, ELISA
Procedure: Mouse CD4+ T cell in vitro Th1 differentiation
Total CD4+ T cells were isolated from splenocytes of C57/BL6 mice (Chareles River Labrotory) using a CD4+ T cell isolation kit (Miltenyl Biotec, Auburn, CA), following the manufacturer’s instructions. Cells were resuspended in culture medium (described in Method section of Th17 differentiation) and were added to 96‐well plates at 2x10^5 per well. Titrated JNJ‐54271074 was added to each well at final DMSO concentration of 0.2%. Cells were incubated for 1 hour, after which Th1 cell differentiation medium was added with final concentrations of 1 µg/ml anti‐CD3, 5 µg/mL anti‐CD28 (BD Pharmingen, San Diego, CA), 10 µg/ml anti‐IL4, 10 ng/mL IL‐12, (R&D Systems, Minneapolis, MN). Cells were cultured at 37 °C and 5% CO2 for 3 days. Supernatants were collected and the accumulated cytokines in culture were measured by ELISA kits (R&D Systems, Minneapolis, MN) following manufacturers' instructions.
IL‐23 induced IL‐17A and IL‐22 production in mouse splenocytes splenocytes were isolated from C57/BL6 mice and resuspended in medium and cultured in 96‐well plates at […] per 100 µL per well. […] Supernatants were collected and the accumulated cytokines in culture were measured by ELISA according to the manufacturer’s instructions (IL‐17A kit from R&D systems, and IL‐22 from Biolegend San Diego). […]

[2] = tested on: collagen-induced arthritis in DBA/1Lacj mice; test: Mouse collagen-induced arthritis model; assay type: in vivo; details: 60 mg/kg BID oral
Procedure: Mice (female DBA/1Lacj mice, Jackson Laboratories; 8–10 weeks) were housed with 12 hours light-dark cycle with food and water provided ad libitum. Following acclimation, mice were immunized with an emulsion containing equal amounts of Chick Type II Collagen (Chondrex, Redmond, WA) and Complete-Freund’s adjuvant (CFA, Chondrex), 100 μg each per mouse, on day 0 at the base of the tail and administered a second immunization boost on day 21. On day 21, animals were examined for clinical arthritis scores and randomized into treatment groups. […] The clinical arthritis scores were evaluated from days 21 to 34. Animals were euthanized under CO2 on day 35. Both hind-paws from each animal were collected and fixed in 10% neutral buffered formalin for histopathology. Both front paws were digested after removing the skin in 0.125% (v/v) Dispase II (Roche, Indianapolis, IN), 0.2% collagenase II (Roche, Indianapolis, IN), and 0.2% collagenase IV (Sigma-Aldrich, St. Louis, MO) in HBSS for 75 min at 37 °C and passed through a cell strainer. Cells were then stimulated and analyzed by flow cytometry for cytokine-producing cells.
Tissues were fixed in 10% formalin, sectioned, and stained with H&E for histology at Seventh Wave Laboratories, LLC, (Chesterfield, MO).

T1 sequence (P35398 272-523): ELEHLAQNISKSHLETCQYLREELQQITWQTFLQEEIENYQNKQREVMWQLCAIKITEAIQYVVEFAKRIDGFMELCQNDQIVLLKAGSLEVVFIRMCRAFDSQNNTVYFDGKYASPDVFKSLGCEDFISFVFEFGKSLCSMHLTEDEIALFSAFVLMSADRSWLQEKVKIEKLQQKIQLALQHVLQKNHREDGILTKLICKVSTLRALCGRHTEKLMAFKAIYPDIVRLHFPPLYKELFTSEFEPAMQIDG

COc1nc2ccc([C@@](O)(c3ccc(C)nc3C)c3cnnn3C)cc2c(Cl)c1Cc1ccc(C(F)(F)F)cc1 [JNJ-54271074]
IC50 (RORα): 4 µM | IFNγ production under Th1 conditions [1]: minimal effects | reduction of AUC for disease score [2]: 79% | decrease of IL-17A-producing CD3+ cell population in paws ([2]; day 35): ~ 70% | inflammation, cartilage damage and bone destruction compared with vehicle ([2]; hind paws histology): significantly reduced | reduction of total histopathology score ([2]; hind paws, day 35): 80%
